Values quoted from earlier work as cited in patent US8877698B2, “Method and composition for disinfecting hard surfaces” (priority 2001, dated 2014).

Tested on: Mycobacterium tuberculosis var. bovis and poliovirus

CCO [ethanol]
concentrations needed to kill resistant organisms: 70-90%
